{"source": "paper PMC6002837", "about": "(Bioorganic & medicinal chemistry letters, 2015)", "target": "T1, Rtt109–Vps75 (Saccharomyces cerevisiae, UniProt Q07794)", "T1 sequence (Q07794 1-436)": "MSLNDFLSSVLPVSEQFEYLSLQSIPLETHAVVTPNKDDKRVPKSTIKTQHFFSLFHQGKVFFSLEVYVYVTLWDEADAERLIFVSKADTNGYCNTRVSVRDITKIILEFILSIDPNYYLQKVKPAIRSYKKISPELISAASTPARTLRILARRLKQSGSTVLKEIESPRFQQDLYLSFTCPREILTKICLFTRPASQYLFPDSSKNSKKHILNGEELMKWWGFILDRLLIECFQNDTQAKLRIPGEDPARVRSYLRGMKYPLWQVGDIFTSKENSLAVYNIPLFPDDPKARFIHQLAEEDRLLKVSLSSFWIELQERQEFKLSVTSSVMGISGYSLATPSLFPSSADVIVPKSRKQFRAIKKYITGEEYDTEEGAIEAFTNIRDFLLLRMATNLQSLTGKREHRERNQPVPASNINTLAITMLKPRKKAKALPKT", "T1 sequence (P53853 1-264 partner)": "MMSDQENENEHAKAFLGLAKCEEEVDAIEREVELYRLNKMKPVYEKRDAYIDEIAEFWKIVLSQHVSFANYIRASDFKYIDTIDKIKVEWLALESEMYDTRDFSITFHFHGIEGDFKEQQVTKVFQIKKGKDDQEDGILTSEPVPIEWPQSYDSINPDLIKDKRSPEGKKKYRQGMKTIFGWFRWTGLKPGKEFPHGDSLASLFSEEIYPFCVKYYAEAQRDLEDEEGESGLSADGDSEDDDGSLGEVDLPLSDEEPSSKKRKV", "test": "in vitro [3H]-acetyl-CoA HAT assay, Rtt109–Vps75", "format": "biochemical, yeast", "conditions": "radiolabeled HAT assay; p = 0.61, n = 3 for 1a"}
{"smiles": "CCN(CC)c1ccc2c(C)c(-c3ccc(N4C(=O)C=CC4=O)cc3)c(=O)oc2c1", "note": "[CPM, N-[4-(7-diethylamino-4-methylcoumarin-3-yl)phenyl]maleimide]", "values": [{"measurement": "difference in IC50 values in presence or absence of DTT and BSA", "value": "significant decrease in IC50"}]}
